According to US20070231269A1, “Analgesics” (IONIX PHARMACEUTICALS LIMITED, priority 2002, published 2007):

Assay: Solubility of buprenorphine hydrochloride in pectin solutions (saturated solution, hplc)
Conditions: for solubility: 18 °C, thermodynamic from solid; for Buprenorphine detected: solubility, 20 mg/ml pectin, pH 3-6, 18° C., expressed as buprenorphine free base

## CO[C@]12CCC3(C[C@@H]1[C@](C)(O)C(C)(C)C)[C@H]1Cc4ccc(O)c5c4[C@@]3(CCN1CC1CC1)[C@H]2O5 [Buprenorphine, 5α,7α(S)-17-(cyclopropylmethyl)-α-(1,1-dimethylethyl)-4,5-epoxy-18,19-dihydro-3-hydroxy-6-methoxy-α-methyl-6,14-ethenomorphinan-7-methanol]
Aqueous with cosolvent or surfactant or cyclodextrin
  solubility: > 10000 µg/mL
pH 4.5, aqueous with cosolvent or surfactant or cyclodextrin
  solubility: < 10000 µg/mL
Dextrose 0-50 mg/ml
  Buprenorphine detected: not affected significantly
Mannitol 0-50 mg/ml
  Buprenorphine detected: not affected significantly
